Measurements published in patent US20190151371A1, “PROCESS FOR CONTINUOUS CELL CULTURE OF ISLET CELLS” (Georgetown University, priority 2016, published 2019).

Assays:
[1] = system: airway epithelial cells; conditions: cited from earlier work
[2] = system: islet cells; assay: Islet cell culture with upstream or downstream ROCK pathway inhibitor in place of a ROCK inhibitor; type: cell-based, human; conditions: used in the culture conditions in place of a ROCK inhibitor
Description: As used herein, inhibiting ROCK can mean to reduce the activity, function or expression of at least one of ROCK1 or ROCK2. […] In general, ROCK phosphorylates LIM kinase and myosin light chain (MLC) phosphatase after being activated through binding of GTP-bound Rho. One embodiment of the present invention thus involves blocking the upstream pathway of ROCK1 and/or ROCK2, for example GTP-bound Rho, such that ROCK1 and/or ROCK2 is not activated or its activity is reduced over untreated cells. Other upstream effectors include but are not limited to, integrins, growth factor receptors, including but not limited to, TGF-beta and EGFR, cadherins, G protein coupled receptors and the like. Another embodiment of the present invention thus involves blocking the activity, function or expression of downstream effector molecules of activated ROCK1 and/or ROCK2 such that ROCK1 and/or ROCK2 cannot propagate any signal or can only propagate a reduced signal over untreated cells. Downstream effectors include but are not limited to, Myosin phosphatase-targeting protein (MYPT), vimentin, LIMK, Myosin light chain kinase, NHE1, cofilin, Myosin II and the like. […] Upstream or downstream inhibition of ROCK, in place of direct ROCK inhibition and in conjunction with the other culture conditions described and required herein, may or may not generate conditionally immortalized islet cells. […]

O=S(=O)(c1cccc2cnccc12)N1CCCNCC1 [HA 1077, fasudil]
effect on airway epithelial cells [1]: induces membrane ruffling, loss of actin stress fibers and apoptosis

C[C@@H](N)[C@H]1CC[C@H](C(=O)Nc2ccncc2)CC1 [Y-27632]
effect on airway epithelial cells [1]: induces membrane ruffling, loss of actin stress fibers and apoptosis

Cc1ccc2c(c1)C(=O)C1(O)CCN(c3ccccc3)C1=N2 (stereo not shown) [blebbistatin]
effect on cell differentiation and proliferation in vitro [2]: allow the cells to bypass differentiation and allow proliferation in vitro

C3 transferase
effect on cell differentiation and proliferation in vitro [2]: allow the cells to bypass differentiation and allow proliferation in vitro
